Laboratory results reported in ChEMBL document CHEMBL5244252, “PROTAC: A promising technology for cancer treatment” (Eur J Med Chem, 2020).
Blank lines part the entries; values can stand above or below the compound they belong to.

Legend:
[1] = molecular target: Cellular tumor antigen p53 (Homo sapiens) (UniProt P04637); experiment: Induction of p53 stabilization in human HCT-116 cells assessed as fold increase by Western blot analysis; assay type: cell-based
[2] = molecular target: T1, Steroid hormone receptor ERR1 (Homo sapiens) (UniProt P11474); experiment: In vivo protac activity at ERRalpha in human MDA-MB-231 cells xenografted mouse assessed as reduction in ERRalpha level in tumor at 100 mg/kg, ip administered 3 times a day; assay type: functional, organism-based; design: scale not given: the % may be the effect or the level left
T1 sequence (whole entry): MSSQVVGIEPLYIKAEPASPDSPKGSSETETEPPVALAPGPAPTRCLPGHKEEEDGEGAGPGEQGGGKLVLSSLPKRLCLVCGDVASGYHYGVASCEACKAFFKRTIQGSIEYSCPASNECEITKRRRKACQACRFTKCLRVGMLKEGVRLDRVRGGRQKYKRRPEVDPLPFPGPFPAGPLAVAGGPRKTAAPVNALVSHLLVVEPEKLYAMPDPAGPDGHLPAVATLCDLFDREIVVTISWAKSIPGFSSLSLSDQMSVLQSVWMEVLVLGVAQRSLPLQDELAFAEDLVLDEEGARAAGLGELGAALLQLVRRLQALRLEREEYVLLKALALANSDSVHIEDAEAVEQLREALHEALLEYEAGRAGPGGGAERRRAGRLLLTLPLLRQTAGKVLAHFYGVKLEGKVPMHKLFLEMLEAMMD

[3] = molecular target: von Hippel-Lindau disease tumor suppressor/Steroid hormone receptor ERR1 (Homo sapiens) (UniProt P11474+P40337); experiment: Protac activity at VHL/ERRalpha in human MCF7 cells assessed as maximum degradation; assay type: cell-based
[4] = Antiproliferative activity against human HBL1 cells expressing BTK C481S mutant assessed as growth inhibition; assay type: functional

von Hippel-Lindau disease tumor suppressor/Steroid hormone receptor ERR1 (Homo sapiens), sequence (P40337 whole entry, looked up, one chain of several): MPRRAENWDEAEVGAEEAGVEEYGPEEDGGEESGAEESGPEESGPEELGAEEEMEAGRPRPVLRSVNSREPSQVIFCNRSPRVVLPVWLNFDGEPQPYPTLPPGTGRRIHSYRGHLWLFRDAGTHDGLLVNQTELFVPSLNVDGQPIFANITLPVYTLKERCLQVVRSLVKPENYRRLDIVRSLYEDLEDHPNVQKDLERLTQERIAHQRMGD
Cellular tumor antigen p53 (Homo sapiens), sequence (P04637 whole entry, looked up): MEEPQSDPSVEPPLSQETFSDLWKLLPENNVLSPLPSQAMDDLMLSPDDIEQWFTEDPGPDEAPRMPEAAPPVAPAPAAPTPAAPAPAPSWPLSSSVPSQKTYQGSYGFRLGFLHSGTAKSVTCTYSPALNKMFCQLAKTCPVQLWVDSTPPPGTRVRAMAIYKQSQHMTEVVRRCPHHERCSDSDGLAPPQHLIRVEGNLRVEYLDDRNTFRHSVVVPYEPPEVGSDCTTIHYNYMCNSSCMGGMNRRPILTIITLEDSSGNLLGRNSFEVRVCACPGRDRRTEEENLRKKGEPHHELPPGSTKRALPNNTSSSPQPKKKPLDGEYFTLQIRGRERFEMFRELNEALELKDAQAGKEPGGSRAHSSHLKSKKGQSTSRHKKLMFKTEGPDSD

fold change (FC) [1]: 5.9
Compound: COc1cc(C(=O)NCCOCCOCCOCCNC(=O)C[C@@H]2N=C(c3ccc(Cl)cc3)C3C(C)=C(C)SC3n3c(C)nnc32)ccc1NC(=O)[C@@H]1N[C@@H](CC(C)(C)C)[C@](C#N)(c2ccc(Cl)cc2F)[C@H]1c1cccc(Cl)c1F (stereo not given in full)

Activity [2]: 39% | Emax [3]: 86%
Compound: COc1cc(/C=C2/SC(=O)N(CCOCCC(=O)N[C@@H](C(=O)N3C[C@H](O)C[C@H]3C(=O)Nc3ccc(-c4scnc4C)cc3)C(C)(C)C)C2=O)ccc1Oc1ccc(C#N)cc1C(F)(F)F

Compound: C=CC(=O)N1CCC[C@@H](n2nc(-c3ccc(Oc4ccccc4)cc3)c3c(N)ncnc32)C1 [IBRUTINIB]
GI50 [4]: 700 nM

Compound: Nc1ncnc2c1c(-c1ccc(Oc3ccccc3)cc1)nn2[C@@H]1CCCN(C(=O)c2cn(CCOCCOCCOCCNc3cccc4c3C(=O)N(C3CCC(=O)NC3=O)C4=O)nn2)C1 (stereo not given in full)
GI50 [4]: 28 nM
